Each compound was assayed against T1, Solute carrier family 12 member 5 (Homo sapiens, UniProt Q9H2X9) (assay: KCC2 modulator potency by thallium flux, dose response, cell-based, HEK293 KCC2, FluoZin-2 fluorescence (AID 1736)). Settings: not given.
T1 sequence (Q9H2X9 whole entry): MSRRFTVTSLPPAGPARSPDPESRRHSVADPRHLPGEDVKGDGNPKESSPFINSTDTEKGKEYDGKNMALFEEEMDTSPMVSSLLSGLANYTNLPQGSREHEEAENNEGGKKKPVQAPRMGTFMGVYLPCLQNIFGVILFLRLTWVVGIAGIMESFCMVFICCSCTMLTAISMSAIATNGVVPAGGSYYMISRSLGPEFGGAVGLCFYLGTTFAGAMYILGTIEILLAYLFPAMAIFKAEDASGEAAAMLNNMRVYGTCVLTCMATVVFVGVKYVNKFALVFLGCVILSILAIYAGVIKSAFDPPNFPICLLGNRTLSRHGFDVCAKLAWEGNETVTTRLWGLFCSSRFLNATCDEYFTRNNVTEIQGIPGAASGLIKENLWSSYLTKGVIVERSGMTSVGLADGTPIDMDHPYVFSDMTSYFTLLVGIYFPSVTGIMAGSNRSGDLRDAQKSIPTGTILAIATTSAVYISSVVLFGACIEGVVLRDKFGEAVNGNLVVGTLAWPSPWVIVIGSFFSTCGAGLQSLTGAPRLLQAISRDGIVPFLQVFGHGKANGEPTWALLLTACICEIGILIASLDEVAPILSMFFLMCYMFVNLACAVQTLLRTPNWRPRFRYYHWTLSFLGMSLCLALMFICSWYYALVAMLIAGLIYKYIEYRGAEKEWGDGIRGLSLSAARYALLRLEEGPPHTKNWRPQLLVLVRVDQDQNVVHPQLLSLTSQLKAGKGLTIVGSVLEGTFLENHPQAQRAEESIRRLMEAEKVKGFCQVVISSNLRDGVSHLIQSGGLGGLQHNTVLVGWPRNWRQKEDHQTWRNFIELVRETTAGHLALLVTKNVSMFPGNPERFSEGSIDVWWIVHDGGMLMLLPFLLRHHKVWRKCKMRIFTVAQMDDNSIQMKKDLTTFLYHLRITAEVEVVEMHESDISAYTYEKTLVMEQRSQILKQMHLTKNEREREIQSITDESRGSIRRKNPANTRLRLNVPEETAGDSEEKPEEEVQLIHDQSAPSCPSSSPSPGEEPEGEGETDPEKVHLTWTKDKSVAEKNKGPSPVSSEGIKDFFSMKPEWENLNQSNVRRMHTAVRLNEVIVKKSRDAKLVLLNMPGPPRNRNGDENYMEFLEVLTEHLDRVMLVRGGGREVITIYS

Row | SMILES | EC50
1 | O=C(NCC1CCCN(C(=O)c2cccnc2)C1)c1ccc(-c2ccccc2)cc1 (centres undefined) [4-phenyl-N-[(1-pyridin-3-ylcarbonylpiperidin-3-yl)methyl]benzamide] | 0.657 µM
2 | Sc1nnc(C2(c3ccccc3)CCCC2)o1 [5-(1-phenylcyclopentyl)-3H-1,3,4-oxadiazole-2-thione] | 1.54 µM
3 | Sc1nnc(Cc2c[nH]c3ccccc23)o1 [5-(1H-indol-3-ylmethyl)-1,3,4-oxadiazole-2(3H)-thione] | 3.76 µM
4 | O=C(OCc1ccccn1)c1ccc(COc2ccccc2Cl)o1 [5-(2-Chloro-phenoxymethyl)-furan-2-carboxylic acid pyridin-2-ylmethyl ester] | 6.49 µM
5 | N#Cc1nc(Cc2cccc3ccccc23)oc1NCCN1CCOCC1 [5-(2-Morpholin-4-yl-ethylamino)-2-naphthalen-1-ylmethyl-oxazole-4-carbonitrile] | 10.3 µM
6 | COc1cccc(Nc2nnc(S)s2)c1 [5-(3-methoxyanilino)-3H-1,3,4-thiadiazole-2-thione] | 2.8 µM
7 | Sc1nnc(COc2ccc(Cl)cc2)o1 [5-(4-Chloro-phenoxymethyl)-3H-[1,3,4]oxadiazole-2-thione] | 4.06 µM
8 | N#Cc1nc(-c2cccs2)oc1N1CCN(Cc2ccccc2)CC1 [5-(4-benzyl-1-piperazinyl)-2-(2-thienyl)-1,3-oxazole-4-carbonitrile] | 11.7 µM
9 | N#Cc1nc(Cc2cccc3ccccc23)oc1N1CCOCC1 [5-(4-morpholinyl)-2-(1-naphthalenylmethyl)-4-oxazolecarbonitrile] | 1.77 µM
10 | O=C(NCC1CCCO1)C(c1cccs1)N(C(=O)c1ccc(-c2ccccc2)[nH]1)C1CCCC1 (centres undefined) [5-Phenyl-1H-pyrrole-2-carboxylic acid cyclopentyl-{[(tetrahydro-furan-2-ylmethyl)-carbamoyl]-thiophen-2-yl-methyl}-amide] | 5.57 µM
11 | Cc1ccc(Cn2nnc3c(=O)[nH]c(C4CCN(S(=O)(=O)c5ccc(F)cc5)CC4)nc32)cc1 [5-[1-(4-fluorophenyl)sulfonylpiperidin-4-yl]-3-[(4-methylphenyl)methyl]-2H-triazolo[4,5-d]pyrimidin-7-one] | 11.1 µM
12 | Cc1cccc(OCCc2nnc(N)s2)c1C [5-[2-(2,3-Dimethyl-phenoxy)-ethyl]-[1,3,4]thiadiazol-2-ylamine] | 52.3 µM
13 | Sc1nnc(CCc2ccc(Cl)cc2)o1 [5-[2-(4-chlorophenyl)ethyl]-1,3,4-oxadiazole-2-thiol] | 2.47 µM
14 | O=C(NCc1cccnc1)c1ccc(COc2ccc(Cl)cc2Cl)o1 [5-[(2,4-dichlorophenoxy)methyl]-N-(3-pyridinylmethyl)-2-furancarboxamide] | 2060 µM
15 | O=C(Nc1cccnc1)c1ccc(COc2cc(Cl)ccc2Cl)o1 [5-[(2,5-dichlorophenoxy)methyl]-N-(3-pyridinyl)-2-furancarboxamide] | 106 µM
16 | O=C(NCc1ccc2c(c1)OCO2)c1ccc(COc2cc(Cl)ccc2Cl)o1 [5-[(2,5-dichlorophenoxy)methyl]-N-piperonyl-2-furamide] | 6.51 µM
17 | O=C(NCCc1cn2ccccc2n1)c1cc(COc2c(F)cccc2F)on1 [5-[(2,6-difluorophenoxy)methyl]-N-(2-imidazo[1,2-a]pyridin-2-ylethyl)-1,2-oxazole-3-carboxamide] | 7.6 µM
18 | O=C(NCc1cccnc1)c1ccc(COc2ccccc2Br)o1 [5-[(2-bromanylphenoxy)methyl]-N-(pyridin-3-ylmethyl)furan-2-carboxamide] | 9.14 µM
19 | O=C(Nc1cccnc1)c1ccc(COc2ccccc2Br)o1 [5-[(2-bromanylphenoxy)methyl]-N-pyridin-3-yl-furan-2-carboxamide] | 5.19 µM
20 | Sc1nnc(CNc2cccc(Cl)c2)o1 [5-[(3-chloroanilino)methyl]-3H-1,3,4-oxadiazole-2-thione] | 1.49 µM

Row | SMILES | EC50
21 | Sc1nnc(Nc2ccccc2)s1 [5-anilino-3H-1,3,4-thiadiazole-2-thione] | 2.5 µM
22 | CCCn1c(N)c(C(=O)CSc2nnc(Cc3ccccc3)o2)c(=O)n(C)c1=O [6-amino-3-methyl-5-[1-oxo-2-[[5-(phenylmethyl)-1,3,4-oxadiazol-2-yl]thio]ethyl]-1-propylpyrimidine-2,4-dione] | 0.00011 µM
23 | O=c1[nH]c2ccc(S(=O)(=O)N3CCN(c4ccccc4F)CC3)cc2s1 [6-{[4-(2-fluorophenyl)piperazin-1-yl]sulfonyl}-1,3-benzothiazol-2(3H)-one] | 8.21 µM
24 | CCc1ccc(Nc2nnc(SCc3cc(=O)n4ccsc4n3)s2)cc1 [7-[[5-(4-ethylanilino)-1,3,4-thiadiazol-2-yl]sulfanylmethyl]-[1,3]thiazolo[3,2-a]pyrimidin-5-one] | 0.281 µM
25 | O=c1c(-c2cnn(-c3ccccc3)c2)coc2cc(O)ccc12 [7-hydroxy-3-(1-phenyl-1H-pyrazol-4-yl)-4H-chromen-4-one] | 20.1 µM
26 | O=C(C1CCN(c2nc3ccc(Br)cc3s2)CC1)N1CCC2(CC1)OCCO2 [8-{[1-(6-bromo-1,3-benzothiazol-2-yl)piperidin-4-yl]carbonyl}-1,4-dioxa-8-azaspiro[4.5]decane] | 7.02 µM
27 | c1ccc(-n2cnc3cc(NCc4ccncc4)ccc32)cc1 [(1-phenylbenzimidazol-5-yl)-(4-pyridylmethyl)amine] | 5.54 µM
28 | COc1ccc(NC(=S)NC(N)=Nc2nc(C)c3ccccc3n2)cc1 [(1E)-1-[amino-[(4-methyl-2-quinazolinyl)amino]methylidene]-3-(4-methoxyphenyl)thiourea] | 70.5 µM
29 | COc1cc(C(=S)N2CCOCC2)cc(OC)c1OC(=O)Cc1ccc(F)cc1 [(2,6-dimethoxy-4-morpholin-4-ylcarbothioyl-phenyl) 2-(4-fluorophenyl)ethanoate] | 3.98 µM
30 | COc1cc(C(=S)N2CCOCC2)cc(OC)c1OC(=O)Cc1ccccc1 [(2,6-dimethoxy-4-morpholin-4-ylcarbothioyl-phenyl) 2-phenylethanoate] | 1.16 µM
31 | c1ccc(-c2csc(N=NCc3ccco3)n2)cc1 [(2-furfurylideneamino)-(4-phenylthiazol-2-yl)amine] | 65 µM
32 | COc1cc(C(=S)N2CCOCC2)ccc1OC(=O)Cc1ccc(F)cc1 [(2-methoxy-4-morpholin-4-ylcarbothioyl-phenyl) 2-(4-fluorophenyl)ethanoate] | 137 µM
33 | CC1Cc2ccccc2N1C(=O)c1ccc(N2CCCCC2)c([N+](=O)[O-])c1 (centres undefined) [(2-methyl-2,3-dihydroindol-1-yl)-(3-nitro-4-piperidin-1-yl-phenyl)methanone] | 1.59 µM
34 | CC1Cc2ccccc2N1C(=O)c1ccc(N2CCCC2)c([N+](=O)[O-])c1 (centres undefined) [(2-methyl-2,3-dihydroindol-1-yl)-(3-nitro-4-pyrrolidin-1-yl-phenyl)methanone] | 0.361 µM
35 | COC(=O)[C@@H](NC(=O)O[C@@H]1C(=O)c2ccc(OC)cc2O[C@H]1c1cccc(C(F)(F)F)c1)C(C)C [(2S)-2-[[(2S,3S)-4-keto-7-methoxy-2-[3-(trifluoromethyl)phenyl]chroman-3-yl]oxycarbonylamino]-3-methyl-butyric acid methyl ester] | 4.12 µM
36 | N#CC(C(=O)c1cccc(F)c1)c1nc2ccccc2s1 (centres undefined) [(2Z)-2-(3H-1,3-benzothiazol-2-ylidene)-3-(3-fluorophenyl)-3-keto-propionitrile] | 9.66 µM
37 | N#CC(C(=O)COc1ccccc1)c1nc2ccccc2s1 (centres undefined) [(2Z)-2-(3H-1,3-benzothiazol-2-ylidene)-3-keto-4-phenoxy-butyronitrile] | 6.56 µM
38 | COc1ccc(C(=O)N2CCCC(c3ccccc3)C2)cc1 (centres undefined) [(4-methoxyphenyl)-(3-phenyl-1-piperidinyl)methanone] | 110 µM
39 | O=C(c1ccc(-c2ccccc2)cc1)C1CCCN(Cc2ccncc2)C1 (centres undefined) [(4-phenylphenyl)-[1-(4-pyridylmethyl)-3-piperidyl]methanone] | 7.52 µM
40 | c1ccc(-c2csc(N=NCc3cccnc3)n2)cc1 [(4-phenylthiazol-2-yl)-(3-pyridylmethyleneamino)amine] | 35.8 µM

Same assay, conditions: inactive by the depositor's call

Row | SMILES | EC50
41 | CCOc1ccc(Nc2nnc(S)s2)cc1 [5-(4-ethoxyanilino)-3H-1,3,4-thiadiazole-2-thione] | 0.0465 µM
42 | O=[N+]([O-])c1ccc(NC2CCN(Cc3ccccc3)CC2)c([N+](=O)[O-])c1 [(1-benzyl-4-piperidyl)-(2,4-dinitrophenyl)amine] | 5.49 µM
43 | COc1ccc(/C=C2\CCc3ccccc3C2=O)cc1CN1CCOCC1 [(2E)-2-[4-methoxy-3-(morpholinomethyl)benzylidene]tetralin-1-one] | 219 µM
44 | CN1C(=CC(=O)C2CCC2)Sc2ccccc21 [(2Z)-1-cyclobutyl-2-(3-methyl-1,3-benzothiazol-2-ylidene)ethanone] | 170 µM
